Test results from the CheMixHub ionic liquid set.

Assay: xn = mol fraction of the nth substance listed

C=C[n+]1ccn(CCCC)c1.N[C@@H](CO)C(=O)[O-] + O
101.3 kPa
Settings | electrical conductivity [S/m] | viscosity [mPa·s]
293.15 K, x1 = 0.3 | – | 17
303.15 K, x1 = 0.1 | 1.37 | 6
303.15 K, x1 = 0.9 | – | 1832
323.15 K, x1 = 1 | 0.017 | 4800
333.15 K, x1 = 0.5 | – | 38.96
343.15 K, x1 = 1 | – | 1737
353.15 K, x1 = 0.1 | – | 4.35
353.15 K, x1 = 0.5 | – | 35.95
353.15 K, x1 = 1 | – | 1154

CC(=O)[O-].Cn1cc[n+](C)c1 + O
293.15 K, 101.3 kPa
Settings | electrical conductivity [S/m]
x2 = 0 | 0.275
x2 = 0.0799 | 0.561
x2 = 0.1095 | 0.863
x2 = 0.2767 | 1.457
x2 = 0.4986 | 2.733
x2 = 0.5673 | 3.384
x2 = 0.7029 | 5.091
x2 = 0.7484 | 5.772
x2 = 0.8651 | 7.166
x2 = 0.8897 | 6.824
x2 = 0.9043 | 5.765
x2 = 0.9388 | 2.782
x2 = 0.9483 | 2
x2 = 0.9579 | 1.213
x2 = 0.9681 | 0.729

CCCCCCCCCCCCCC[P+](CCCCCC)(CCCCCC)CCCCCC.N#C[N-]C#N + O
viscosity [mPa·s], 100 kPa
Settings | 298.15 K | 303.15 K
x1 = 0.5511 | 183 | –
x1 = 0.8444 | 440 | 328

CCCCCCCCCC[n+]1ccn(C)c1.O=S(=O)([O-])C(F)(F)C(F)(F)C(F)(F)C(F)(F)F + O
298.15 K, 100 kPa
Settings | electrical conductivity [S/m]
x1 = 1.66e-06 | 0.00043
x1 = 2.36e-06 | 0.00063
x1 = 3.06e-06 | 0.00086
x1 = 4.11e-06 | 0.00114
x1 = 5.17e-06 | 0.00146
x1 = 5.95e-06 | 0.00163
x1 = 6.65e-06 | 0.00186
x1 = 7.44e-06 | 0.00212
x1 = 8.14e-06 | 0.00237
x1 = 8.76e-06 | 0.00252
x1 = 9.8e-06 | 0.00283
x1 = 1.042e-05 | 0.003
x1 = 1.103e-05 | 0.00323
x1 = 1.164e-05 | 0.00343
x1 = 1.234e-05 | 0.00363
x1 = 1.323e-05 | 0.00389
x1 = 1.384e-05 | 0.00412
x1 = 1.445e-05 | 0.00429
x1 = 1.506e-05 | 0.00446
x1 = 1.586e-05 | 0.00466
x1 = 1.638e-05 | 0.00486
x1 = 1.699e-05 | 0.00506
x1 = 1.779e-05 | 0.00529
x1 = 1.831e-05 | 0.00541
x1 = 1.901e-05 | 0.00569
x1 = 1.971e-05 | 0.00578
x1 = 2.058e-05 | 0.00601
x1 = 2.171e-05 | 0.00621
x1 = 2.26e-05 | 0.00635
x1 = 2.33e-05 | 0.00649
x1 = 2.443e-05 | 0.00669
x1 = 2.512e-05 | 0.00678
x1 = 2.618e-05 | 0.00695
x1 = 2.714e-05 | 0.00703
x1 = 2.793e-05 | 0.0072
x1 = 2.907e-05 | 0.00729
x1 = 3.011e-05 | 0.0074
x1 = 3.116e-05 | 0.00746
x1 = 3.229e-05 | 0.00763
x1 = 3.361e-05 | 0.00777
x1 = 3.526e-05 | 0.00791
x1 = 3.649e-05 | 0.008
x1 = 3.815e-05 | 0.00814
x1 = 3.971e-05 | 0.00825
x1 = 4.103e-05 | 0.00831

CCCCCCCC[N+](C)(C)C.[Br-] + O
298.15 K, 101 kPa
Settings | viscosity [mPa·s]
x1 = 0.000891 | 0.9226
x1 = 0.001742 | 0.956
x1 = 0.002174 | 0.9692
x1 = 0.002616 | 0.9795
x1 = 0.003154 | 0.9978
x1 = 0.003538 | 1.012
x1 = 0.004276 | 1.036
x1 = 0.004645 | 1.048
x1 = 0.005039 | 1.058
x1 = 0.005479 | 1.076

CCCCCCCC[n+]1cccc(C)c1.F[B-](F)(F)F + O
298.15 K, 101 kPa
Settings | electrical conductivity [S/m]
x1 = 4.685e-05 | 0.024
x1 = 0.0001279 | 0.063
x1 = 0.000272 | 0.127
x1 = 0.0003045 | 0.142
x1 = 0.0004197 | 0.19
x1 = 0.0005619 | 0.248
x1 = 0.0007023 | 0.308
x1 = 0.0007922 | 0.33
x1 = 0.0008948 | 0.377
x1 = 0.0009955 | 0.402
x1 = 0.00103 | 0.408
x1 = 0.001107 | 0.419
x1 = 0.001265 | 0.42
x1 = 0.00128 | 0.42
x1 = 0.001371 | 0.421
x1 = 0.001459 | 0.421
x1 = 0.001608 | 0.422
x1 = 0.00177 | 0.422
x1 = 0.001919 | 0.422
x1 = 0.002066 | 0.423
x1 = 0.002642 | 0.425

CCCCCC[n+]1ccn(C)c1.N[C@@H](CCC(=O)O)C(=O)[O-] + O
298.15 K, 100 kPa
Settings | electrical conductivity [S/m]
x1 = 0.001278 | 0.2317
x1 = 0.002014 | 0.338
x1 = 0.00309 | 0.46
x1 = 0.004145 | 0.577
x1 = 0.004824 | 0.676
x1 = 0.00584 | 0.783
x1 = 0.007281 | 0.923
x1 = 0.008947 | 1.011
x1 = 0.01064 | 1.107
x1 = 0.01274 | 1.2
x1 = 0.01517 | 1.26
x1 = 0.01798 | 1.28

CCCCCCn1cc[n+](CCCCCC)c1.O=S(=O)([N-]S(=O)(=O)C(F)(F)F)C(F)(F)F + O
100 kPa, x2 = 0.1489
Settings | viscosity [mPa·s]
303.15 K | 65.69
328.15 K | 24.7

CCCC[P+](CCCC)(CCCC)CCCC.[Br-] + O
Settings | viscosity [mPa·s]
298.15 K, 101 kPa, x1 = 0.09759 | 10.65
